Data taken from patent US5814488A (priority 1993, dated 1998).
≈ marks a conversion by molar mass, not a printed value. Read-outs that look alike come from different tables or passages of the source.

Tests used:
Streptococcus pyogenes = test: In vitro antibacterial activity against 1108 strains pathogenic bacteria (Table 4); type: cell-based; conditions: 27 strains
[1] = Chronic toxicity, rat i.p. 90 days
Enterobacter cloacae = test: In vitro antibacterial activity against 1108 strains pathogenic bacteria (Table 4); type: cell-based; conditions: 29 strains
Escherichia coli [2] = test: as above; type: cell-based
Source text: (§1) […]. […] […]

Proteus mirabilis = test: as above; type: cell-based; conditions: 60 strains
Source text: as §1

Pseudomonas sp. [3] = test: as above; type: cell-based; conditions: 204 strains
Source text: as §1

Ciltrobacter sp. = test: as above; type: cell-based; conditions: 30 strains
Source text: as §1

Salmonella typhi = test: as above; type: cell-based; conditions: Salmonella enterica
Source text: as §1

Enterobacter aerugenes = test: as above; type: cell-based
Source text: as §1

Acinetobacter sp. = test: as above; type: cell-based; conditions: 27 strains
Source text: as §1

Klebsiella pneumoniae [4] = test: as above; type: cell-based
Source text: as §1

Staphylococcus arueus = test: as above; type: cell-based; conditions: 190 strains
Escherichia coli [5] = test: Comparison of MIC and MBC (Tables 5 and 6); type: cell-based
Source text: as §1

Pseudomonas sp. [6] = test: Comparison of MIC and MBC (Tables 5 and 6); type: cell-based
Source text: as §1

S. aureus = test: Comparison of MIC and MBC (Tables 5 and 6); type: cell-based; conditions: S. aureus, 31 strains
Source text: as §1

Klebsiella pneumoniae [7] = test: Comparison of MIC and MBC (Tables 5 and 6); type: cell-based
Source text: as §1

Shigella = test: Comparison of MIC and MBC (Tables 5 and 6); type: cell-based
Source text: as §1

[8] = system: Staphylococcus epidermidis; test: In vitro antibacterial activity against 1108 strains pathogenic bacteria (Table 4); type: cell-based; conditions: 27 strains
Serratia sp. = test: as above; type: cell-based; conditions: 30 strains
[9] = system: Methicillin resistant S. aureus; test: as above; type: cell-based; conditions: Staphylococcus aureus, 53 strains
Streptococcus faecalis = test: as above; type: cell-based; conditions: Enterococcus faecalis, 33 strains
Streptococcus viridans = test: as above; type: cell-based; conditions: 27 strains
Haemophilus influenzae = test: as above; type: cell-based; conditions: 8 strains
bacteria infected mice = test: In vivo therapeutic effect on bacteria infected mice; conditions: similar to those in vitro
Streptococcus pneumoniae = test: In vitro antibacterial activity against 1108 strains pathogenic bacteria (Table 4); type: cell-based; conditions: 14 strains
[10] = Acute toxicity, Kunming mice; conditions: versus netilmicin and GM
Shigella dysenteriae = test: In vitro antibacterial activity against 1108 strains pathogenic bacteria (Table 4); type: cell-based
[11] = Nephrotoxicity to rat after i.m. administration; conditions: gentamicin at 150 MKD and 100 MKD from seventh day
[12] = Enterobacter aerugenes, 27 strains
[13] = Table 5, 20 strains, read-out: MBC50
[14] = Table 5, 20 strains, read-out: MBC90
[15] = Table 6, 20 strains, unit assumed

Compound: CCNC1CC(N)C(OC2OC(CN)CCC2N)C(O)C1OC1OCC(C)(O)C(NC)C1O (stereo not drawn)
- MIC50 (Streptococcus pyogenes): 1 µg/mL (≈ 2.09 µM)
- MIC90 (Streptococcus pyogenes): 32 µg/mL (≈ 67 µM)
- MIC (Streptococcus pyogenes; read-out: MIC range): 0.25 to 128 µg/mL (≈ 0.523 to 268 µM)
- MIC (Streptococcus pyogenes; read-out: Mode MIC): 1 µg/mL (≈ 2.09 µM)
- chronic toxicity, comparison with MCR [1]: not greater than that of MCR
- MIC50 (Enterobacter cloacae): 2 µg/mL (≈ 4.19 µM)
- MIC90 (Enterobacter cloacae): 64 µg/mL (≈ 134 µM)
- MIC (Enterobacter cloacae; read-out: Mode MIC): 0.25 µg/mL (≈ 0.523 µM)
- MIC50 (Escherichia coli [2]; 146 strains): 0.25 µg/mL (≈ 0.523 µM)
- MIC90 (Escherichia coli [2]; 146 strains): 16 µg/mL (≈ 33.5 µM)
- MIC (Escherichia coli [2]; 146 strains, read-out: Mode MIC): 0.25 µg/mL (≈ 0.523 µM)
- MIC (Escherichia coli [2]; read-out: MIC range): 0.125 to 64 µg/mL (≈ 0.262 to 134 µM)
- MIC50 (Proteus mirabilis): 0.5 µg/mL (≈ 1.05 µM)
- MIC90 (Proteus mirabilis): 2 µg/mL (≈ 4.19 µM)
- MIC range (Proteus mirabilis; in µg/mL (unit assumed)): 0.125-128
- MIC (Proteus mirabilis; read-out: Mode MIC): 0.5 µg/mL (≈ 1.05 µM)
- MIC50 (Pseudomonas sp. [3]): 8 µg/mL (≈ 16.8 µM)
- MIC90 (Pseudomonas sp. [3]): > 256 µg/mL
- MIC (Pseudomonas sp. [3]; read-out: Mode MIC): 8 µg/mL (≈ 16.8 µM)
- MIC50 (Ciltrobacter sp.): 0.25 µg/mL (≈ 0.523 µM)
- MIC90 (Ciltrobacter sp.): 16 µg/mL (≈ 33.5 µM)
- MIC range (Ciltrobacter sp.; in µg/mL (unit assumed)): 0.125-128
- MIC (Ciltrobacter sp.; read-out: Mode MIC): 0.25 µg/mL (≈ 0.523 µM)
- MIC50 (Salmonella typhi): 0.5 µg/mL (≈ 1.05 µM)
- MIC90 (Salmonella typhi): 8 µg/mL (≈ 16.8 µM)
- MIC (Salmonella typhi; read-out: MIC range): 0.062 to 32 µg/mL (≈ 0.13 to 67 µM)
- MIC (Salmonella typhi; read-out: Mode MIC): 0.5 µg/mL (≈ 1.05 µM)
- MIC50 (Enterobacter aerugenes; [12]): 0.25 µg/mL (≈ 0.523 µM)
- MIC90 (Enterobacter aerugenes; [12]): 16 µg/mL (≈ 33.5 µM)
- MIC (Enterobacter aerugenes; Enterobacter aerugenes, 27 strains, read-out: MIC range): 0.062 to 32 µg/mL (≈ 0.13 to 67 µM)
- MIC (Enterobacter aerugenes; Enterobacter, read-out: Mode MIC): 0.125 µg/mL (≈ 0.262 µM)
- MIC50 (Acinetobacter sp.): 0.5 µg/mL (≈ 1.05 µM)
- MIC90 (Acinetobacter sp.): 256 µg/mL (≈ 536 µM)
- MIC range (Acinetobacter sp.; in µg/mL (unit assumed)): 0.125-256
- MIC (Acinetobacter sp.; read-out: Mode MIC): 0.25 µg/mL (≈ 0.523 µM)
- MIC50 (Klebsiella pneumoniae [4]): 0.125 µg/mL (≈ 0.262 µM)
- MIC90 (Klebsiella pneumoniae [4]; 115 strains): 8 µg/mL (≈ 16.8 µM)
- MIC range (Klebsiella pneumoniae [4]; 115 strains, in µg/mL (unit assumed)): 0.062-128
- MIC (Klebsiella pneumoniae [4]; read-out: Mode MIC): 0.125 µg/mL (≈ 0.262 µM)
- MIC50 (Staphylococcus arueus): 1 µg/mL (≈ 2.09 µM)
- MIC90 (Staphylococcus arueus): 16 µg/mL (≈ 33.5 µM)
- MIC range (Staphylococcus arueus; in µg/mL (unit assumed)): 0.031-128
- MIC (Staphylococcus arueus; read-out: Mode MIC): 0.062 µg/mL (≈ 0.13 µM)
- MIC50 (Escherichia coli [5]): 0.125 µg/mL (≈ 0.262 µM)
- MBC (Escherichia coli [5]; [13]): 0.25 µg/mL (≈ 0.523 µM)
- MBC (Escherichia coli [5]; [14]): 1 µg/mL (≈ 2.09 µM)
- MIC90 (Escherichia coli [5]; Table 5, 20 strains, read-out: MIC90): 0.5 µg/mL (≈ 1.05 µM)
- MBC90 (Escherichia coli [5]; [15]): 1 µg/mL (≈ 2.09 µM)
- MBC (Escherichia coli [5]; read-out: MBC range): 0.125 to 8 µg/mL (≈ 0.262 to 16.8 µM)
- MIC50 (Pseudomonas sp. [6]; Pseudomonas): 1 µg/mL (≈ 2.09 µM)
- MIC90 (Pseudomonas sp. [6]; Pseudomonas): 4 µg/mL (≈ 8.38 µM)
- MBC (Pseudomonas sp. [6]; Pseudomonas, read-out: MBC50): 2 µg/mL (≈ 4.19 µM)
- MBC (Pseudomonas sp. [6]; Pseudomonas, read-out: MBC90): 8 µg/mL (≈ 16.8 µM)
- MBC (Pseudomonas sp. [6]; Table 6, Pseudomonas sp., 20 strains, read-out: MBC range): 0.25 to 16 µg/mL (≈ 0.523 to 33.5 µM)
- MBC90 (Pseudomonas sp. [6]; Table 6, Pseudomonas sp., 20 strains, unit assumed): 8 µg/mL (≈ 16.8 µM)
- MBC (S. aureus; Staphylococcus aureus, Table 5, read-out: MBC50): 0.5 µg/mL (≈ 1.05 µM)
- MBC (S. aureus; Staphylococcus aureus, Table 5, read-out: MBC90): 2 µg/mL (≈ 4.19 µM)
- MIC50 (S. aureus; Staphylococcus aureus, Table 5, read-out: MIC50): 0.062 µg/mL (≈ 0.13 µM)
- MIC90 (S. aureus; Staphylococcus aureus, Table 5, read-out: MIC90): 0.25 µg/mL (≈ 0.523 µM)
- MBC (S. aureus; Staphylococcus aureus, Table 6, read-out: MBC range): 0.062 to 4 µg/mL (≈ 0.13 to 8.38 µM)
- MBC90 (S. aureus; Table 6, unit assumed): 2 µg/mL (≈ 4.19 µM)
- MIC50 (Klebsiella pneumoniae [7]): 0.125 µg/mL (≈ 0.262 µM)
- MIC90 (Klebsiella pneumoniae [7]): 0.125 µg/mL (≈ 0.262 µM)
- MBC (Klebsiella pneumoniae [7]; [13]): 0.25 µg/mL (≈ 0.523 µM)
- MBC (Klebsiella pneumoniae [7]; [14]): 0.5 µg/mL (≈ 1.05 µM)
- MBC (Klebsiella pneumoniae [7]; Table 6, 20 strains, read-out: MBC range): 0.062 to 1 µg/mL (≈ 0.13 to 2.09 µM)
- MBC90 (Klebsiella pneumoniae [7]; [15]): 0.5 µg/mL (≈ 1.05 µM)
- MIC50 (Shigella; Table 5, 10 strains): 0.062 µg/mL (≈ 0.13 µM)
- MBC (Shigella; Table 5, 10 strains, read-out: MBC50): 0.5 µg/mL (≈ 1.05 µM)
- MBC (Shigella; Table 5, 10 strains, read-out: MBC90): 1 µg/mL (≈ 2.09 µM)
- MIC90 (Shigella; Table 5, 10 strains, read-out: MIC90): 0.125 µg/mL (≈ 0.262 µM)
- MBC (Shigella; Table 6, 10 strains, read-out: MBC range): 0.125 to 1 µg/mL (≈ 0.262 to 2.09 µM)
- MBC90 (Shigella; Table 6, 10 strains, unit assumed): 1 µg/mL (≈ 2.09 µM)
- MIC50 [8]: 0.31 µg/mL (≈ 0.649 µM)
- MIC90 [8]: 1 µg/mL (≈ 2.09 µM)
- MIC ([8]; read-out: MIC range): 0.031 to 16 µg/mL (≈ 0.0649 to 33.5 µM)
- MIC ([8]; read-out: Mode MIC): 0.031 µg/mL (≈ 0.0649 µM)
- MIC50 (Serratia sp.): 0.5 µg/mL (≈ 1.05 µM)
- MIC90 (Serratia sp.): 32 µg/mL (≈ 67 µM)
- MIC range (Serratia sp.; in µg/mL (unit assumed)): 0.062-256
- MIC (Serratia sp.; read-out: Mode MIC): 0.5 µg/mL (≈ 1.05 µM)
- MIC50 [9]: 8 µg/mL (≈ 16.8 µM)
- MIC90 [9]: 32 µg/mL (≈ 67 µM)
- MIC ([9]; read-out: MIC range): 0.5 to 128 µg/mL (≈ 1.05 to 268 µM)
- MIC ([9]; read-out: Mode MIC): 8 µg/mL (≈ 16.8 µM)
- MIC50 (Streptococcus faecalis): 32 µg/mL (≈ 67 µM)
- MIC90 (Streptococcus faecalis): 256 µg/mL (≈ 536 µM)
- MIC (Streptococcus faecalis; read-out: MIC range): 0.5 to 256 µg/mL (≈ 1.05 to 536 µM)
- MIC (Streptococcus faecalis; read-out: Mode MIC): 1 µg/mL (≈ 2.09 µM)
- MIC50 (Streptococcus viridans): 1 µg/mL (≈ 2.09 µM)
- MIC90 (Streptococcus viridans): 4 µg/mL (≈ 8.38 µM)
- MIC (Streptococcus viridans; read-out: MIC range): 0.062 to 4 µg/mL (≈ 0.13 to 8.38 µM)
- MIC (Streptococcus viridans; read-out: Mode MIC): 2 µg/mL (≈ 4.19 µM)
- MIC50 (Haemophilus influenzae): 0.031 µg/mL (≈ 0.0649 µM)
- MIC90 (Haemophilus influenzae): 4 µg/mL (≈ 8.38 µM)
- MIC (Haemophilus influenzae; read-out: MIC range): 0.031 to 4 µg/mL (≈ 0.0649 to 8.38 µM)
- MIC (Haemophilus influenzae; read-out: Mode MIC): 0.031 µg/mL (≈ 0.0649 µM)
- inhibitive and germicide activities in vivo (bacteria infected mice): high inhibitive activities and germicide activities in vivo which are similar to those in vitro
- MIC50 (Streptococcus pneumoniae): 0.25 µg/mL (≈ 0.523 µM)
- MIC90 (Streptococcus pneumoniae): 4 µg/mL (≈ 8.38 µM)
- MIC (Streptococcus pneumoniae; read-out: MIC range): 0.031 to 16 µg/mL (≈ 0.0649 to 33.5 µM)
- MIC (Streptococcus pneumoniae; read-out: Mode MIC): 0.031 µg/mL (≈ 0.0649 µM)
- acute toxicity, comparison [10]: lower than that of netilmicin obviously and similar to that of GM
- MIC50 (Shigella dysenteriae): 0.25 µg/mL (≈ 0.523 µM)
- MIC90 (Shigella dysenteriae): 0.5 µg/mL (≈ 1.05 µM)
- MIC (Shigella dysenteriae; read-out: MIC range): 0.125 to 64 µg/mL (≈ 0.262 to 134 µM)
- MIC (Shigella dysenteriae; read-out: Mode MIC): 0.25 µg/mL (≈ 0.523 µM)
- dead animals [11]: no dead
